Assay results as given in ChEMBL document CHEMBL1144437, “Identification of nonpeptidic small-molecule inhibitors of interleukin-2” (Bioorg Med Chem Lett, 2005).

Assay: Inhibitory concentration against interleukin-2 binding
Design: species or system Homo sapiens

Question: Which IC50 does the source give for N=C(N)N[C@@H](C(=O)NCC(=O)N1CCC(c2cc(-c3cccc(Cl)c3Cl)n[nH]2)CC1)C1CCCCC1 here?
Answer: 6 µM

Question: Which IC50 does the source give for CCCN(CCCNC(=O)N1CCC(c2cc(-c3cccc(Cl)c3Cl)nn2C)CC1)C(=N)N here?
Answer: > 100 µM

Question: With Cn1nc(-c2cccc(Cl)c2Cl)cc1C1CCN(C(=O)NCCCCN=C(N)N)CC1 as the compound, how does the IC50 read?
Answer: > 100 µM

Question: For CCCN(CCCNS(=O)(=O)N1CCC(c2cc(-c3cccc(Cl)c3Cl)nn2C)CC1)C(=N)N, which IC50 is on record?
Answer: 32 µM

Question: Which IC50 does the source give for C[C@H](CCNS(=O)(=O)N1CCC(c2cc(-c3cccc(Cl)c3Cl)nn2C)CC1)N=C(N)N here?
Answer: 90 µM

Question: Which IC50 does the source give for CN(CCCNS(=O)(=O)N1CCC(c2cc(-c3cccc(Cl)c3Cl)nn2C)CC1)C(=N)N here?
Answer: 14 µM

Question: With Cn1nc(-c2cccc(Cl)c2Cl)cc1C1CCN(C(=O)NCCN=C(N)N)CC1 as the compound, how does the IC50 read?
Answer: > 100 µM

Question: With CC(C)C[C@H](CCNC(=O)N1CCC(c2cc(-c3cccc(Cl)c3Cl)nn2C)CC1)N=C(N)N as the compound, how does the IC50 read?
Answer: 23 µM

Question: With Cn1nc(-c2cccc(Cl)c2Cl)cc1C1CCN(S(=O)(=O)NCCCN=C(N)N)CC1 as the compound, how does the IC50 read?
Answer: 23 µM

Question: With Cn1nc(-c2cccc(Cl)c2Cl)cc1C1CCN(C(=O)NCCCN=C(N)N)CC1 as the compound, how does the IC50 read?
Answer: 29 µM

Question: With Cn1nc(-c2cccc(Cl)c2Cl)cc1C1CCN(S(=O)(=O)NCCCCN=C(N)N)CC1 as the compound, how does the IC50 read?
Answer: > 100 µM

Question: With Cn1nc(-c2cccc(Cl)c2Cl)cc1C1CCN(C(=O)NCC[C@H](N=C(N)N)C(=O)O)CC1 as the compound, how does the IC50 read?
Answer: > 100 µM

Question: With CC(C)N(CCCNC(=O)N1CCC(c2cc(-c3cccc(Cl)c3Cl)nn2C)CC1)C(=N)N as the compound, how does the IC50 read?
Answer: > 100 µM

Question: Which IC50 does the source give for CN(C)C(=O)[C@H](CCNC(=O)N1CCC(c2cc(-c3cccc(Cl)c3Cl)nn2C)CC1)N=C(N)N here?
Answer: 7 µM

Question: Which IC50 does the source give for CC(C)[C@@H](CCNS(=O)(=O)N1CCC(c2cc(-c3cccc(Cl)c3Cl)nn2C)CC1)N=C(N)N here?
Answer: > 100 µM

Question: With C[C@H](CCNC(=O)N1CCC(c2cc(-c3cccc(Cl)c3Cl)nn2C)CC1)N=C(N)N as the compound, how does the IC50 read?
Answer: 57 µM

Question: For CN(CCCNC(=O)N1CCC(c2cc(-c3cccc(Cl)c3Cl)nn2C)CC1)C(=N)N, which IC50 is on record?
Answer: 16 µM

Question: Which IC50 does the source give for CC(=O)N1CCN(C(=O)[C@H](CCNC(=O)N2CCC(c3cc(-c4cccc(Cl)c4Cl)nn3C)CC2)N=C(N)N)CC1 here?
Answer: 60 µM

Question: Which IC50 does the source give for Cn1nc(-c2cccc(Cl)c2Cl)cc1C1CCN(C(=O)NCC[C@H](N=C(N)N)C(=O)N2CCCC2)CC1 here?
Answer: 20 µM

Question: Which IC50 does the source give for CC(C)[C@H](CCNS(=O)(=O)N1CCC(c2cc(-c3cccc(Cl)c3Cl)nn2C)CC1)N=C(N)N here?
Answer: 76 µM

Question: Which IC50 does the source give for CC(C)N(CCCNS(=O)(=O)N1CCC(c2cc(-c3cccc(Cl)c3Cl)nn2C)CC1)C(=N)N here?
Answer: 48 µM

Question: With CN(CCCNS(=O)(=O)N1CCC(c2cc(-c3ccc(OCc4ccc(C(=O)O)o4)c(Cl)c3Cl)nn2C)CC1)C(=N)N as the compound, how does the IC50 read?
Answer: 0.6 µM

Question: For Cn1nc(-c2cccc(Cl)c2Cl)cc1C1CCN(C(=O)NCC[C@H](N=C(N)N)C(=O)N2CCC3CCCCC3C2)CC1 (stereo partly drawn), which IC50 is on record?
Answer: > 100 µM

Question: Which IC50 does the source give for CC(C)[C@@H](CCNC(=O)N1CCC(c2cc(-c3cccc(Cl)c3Cl)nn2C)CC1)N=C(N)N here?
Answer: > 100 µM

Question: Which IC50 does the source give for Cn1nc(-c2cccc(Cl)c2Cl)cc1C1CCN(S(=O)(=O)NCCN=C(N)N)CC1 here?
Answer: > 100 µM

Question: Which IC50 does the source give for CC(C)C[C@H](CCNS(=O)(=O)N1CCC(c2cc(-c3cccc(Cl)c3Cl)nn2C)CC1)N=C(N)N here?
Answer: 30 µM

Question: Which IC50 does the source give for CNC(=O)[C@H](CCNC(=O)N1CCC(c2cc(-c3cccc(Cl)c3Cl)nn2C)CC1)N=C(N)N here?
Answer: > 100 µM

Question: Which IC50 does the source give for COC(=O)[C@H](CCNC(=O)N1CCC(c2cc(-c3cccc(Cl)c3Cl)nn2C)CC1)N=C(N)N here?
Answer: > 100 µM

Question: Which IC50 does the source give for CCN(CC)C(=O)[C@H](CCNC(=O)N1CCC(c2cc(-c3cccc(Cl)c3Cl)nn2C)CC1)N=C(N)N here?
Answer: 11 µM

Question: For CCN(CC1CC1)C(=O)[C@H](CCNC(=O)N1CCC(c2cc(-c3cccc(Cl)c3Cl)nn2C)CC1)N=C(N)N, which IC50 is on record?
Answer: 60 µM

Question: For COC(=O)[C@H](Cc1ccc(C#Cc2ccccc2)cc1)NC(=O)C[C@H]1CCCN(C(=N)N)C1, which IC50 is on record?
Answer: 3 µM

Question: For CC(C)[C@H](CCNC(=O)N1CCC(c2cc(-c3cccc(Cl)c3Cl)nn2C)CC1)N=C(N)N, which IC50 is on record?
Answer: 55 µM

Question: With CC(C)C[C@@H](NC(=N)N)C(=O)NCC(=O)N1CCC(c2cc(-c3ccc(OCc4ccc(C(=O)O)o4)c(Cl)c3Cl)nn2C)CC1 as the compound, how does the IC50 read?
Answer: 0.06 µM
